Assay results from ChEMBL document CHEMBL1857833, “Screening and optimization of specific chemical series against human African Trypanosomiasis (HAT)”.
≈ marks a conversion by molar mass, not a printed value.

Tests used:
[1] = (§1) DNDI: Cytotoxicity against L929 mouse fibroblasts, 72 hour.; format: toxicity, cell-based; details: mouse, L929 mouse fibroblasts
Trypanosoma brucei [2] = experiment: DNDI: Inhibition of Human African Trypanosomiasis, SBRI 427, in vitro; format: functional, organism-based; details: Trypanosoma brucei, SBRI 427; read-out: IC50
[3] = DNDI: Lipophilicity measured in Chromatographic hydrophobicity index (CHI) assay, pH 7.4; format: physicochemical; details: buffer
MDR1 (ABCB1) [4] = biological target: T1, MDR1 (ABCB1) (Homo sapiens, UniProt P08183); experiment: DNDI: % of compound recovered from apical to basolateral permeability assay in MDCK cells transfected with human MDR1 after 60 mins at a concentration of 3uM; format: ADME, cell-based, Canis lupus familiaris; details: dog
T1 sequence (P08183 whole entry): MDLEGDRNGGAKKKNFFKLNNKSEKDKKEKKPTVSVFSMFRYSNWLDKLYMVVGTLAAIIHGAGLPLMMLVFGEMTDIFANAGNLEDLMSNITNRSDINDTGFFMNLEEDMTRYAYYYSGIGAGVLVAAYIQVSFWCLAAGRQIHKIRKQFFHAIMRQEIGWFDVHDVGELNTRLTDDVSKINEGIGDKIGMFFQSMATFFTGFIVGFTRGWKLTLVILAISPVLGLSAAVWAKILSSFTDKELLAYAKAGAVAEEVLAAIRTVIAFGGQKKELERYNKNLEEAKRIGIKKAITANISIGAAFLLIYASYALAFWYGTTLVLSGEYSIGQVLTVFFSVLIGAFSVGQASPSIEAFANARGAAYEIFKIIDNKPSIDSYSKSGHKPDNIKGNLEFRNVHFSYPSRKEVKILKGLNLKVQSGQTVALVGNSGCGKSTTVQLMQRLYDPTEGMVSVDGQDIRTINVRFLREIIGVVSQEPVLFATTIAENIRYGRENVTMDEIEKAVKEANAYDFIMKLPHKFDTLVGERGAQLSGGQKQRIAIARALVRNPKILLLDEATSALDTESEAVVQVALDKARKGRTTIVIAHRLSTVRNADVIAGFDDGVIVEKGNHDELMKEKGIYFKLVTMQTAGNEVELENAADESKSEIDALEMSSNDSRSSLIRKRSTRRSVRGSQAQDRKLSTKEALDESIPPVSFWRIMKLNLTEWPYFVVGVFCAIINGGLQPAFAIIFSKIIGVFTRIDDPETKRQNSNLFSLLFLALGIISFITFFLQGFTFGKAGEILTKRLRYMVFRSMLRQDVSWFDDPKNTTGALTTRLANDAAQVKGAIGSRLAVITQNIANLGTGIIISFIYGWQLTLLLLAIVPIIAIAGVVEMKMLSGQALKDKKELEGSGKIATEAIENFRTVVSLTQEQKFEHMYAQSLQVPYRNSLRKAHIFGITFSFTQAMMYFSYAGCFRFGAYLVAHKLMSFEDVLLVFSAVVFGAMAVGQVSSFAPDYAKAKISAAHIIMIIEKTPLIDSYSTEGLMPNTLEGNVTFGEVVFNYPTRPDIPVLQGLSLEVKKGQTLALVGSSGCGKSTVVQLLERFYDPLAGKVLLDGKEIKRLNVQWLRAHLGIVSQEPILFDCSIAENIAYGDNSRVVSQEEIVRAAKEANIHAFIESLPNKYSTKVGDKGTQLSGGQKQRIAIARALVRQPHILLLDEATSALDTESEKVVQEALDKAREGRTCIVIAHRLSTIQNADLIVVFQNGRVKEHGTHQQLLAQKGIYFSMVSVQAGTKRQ

[5] = biological target: T2, ATP-dependent translocase ABCB1 (Homo sapiens, UniProt P08183); experiment: DNDI: Apparent permeability from apical to basolateral side of the MDCK cell transfected with human MDR1after 60 mins at a concentration of 3uM; format: ADME, cell-based, Canis lupus familiaris; details: dog, mdck, 1 h, 3 µM
T2 sequence (P08183 whole entry): as above

[6] = biological target: T2, ATP-dependent translocase ABCB1; experiment: DNDI: Apparent permeability from basolateral to apical side of the MDCK cell transfected with human MDR1after 60 mins at a concentration of 3uM; format: ADME, cell-based, Canis lupus familiaris; details: dog, 1 h
MDR1 (ABCB1) [7] = biological target: T1, MDR1 (ABCB1); experiment: DNDI: % of compound recovered from basolateral to apical permeability assay in MDCK cells transfected with human MDR1 after 60 mins at a concentration of 3uM; format: ADME, cell-based, Canis lupus familiaris; details: dog
[8] = biological target: T2, ATP-dependent translocase ABCB1; experiment: (§2) DNDI: Efflux ratio for permeability from basolateral to apical side to apical to basolateral side of MDCK cells transfected with human MDR1; format: ADME, cell-based, Canis lupus familiaris; details: dog, mdck
[9] = DNDI: Solubility in phosphate buffered saline at pH7.4 measured by nephelometry at room temperature (NEPH-RT); format: physicochemical; details: pH 7.4
Trypanosoma cruzi = experiment: DNDI: Inhibition of Chagas Disease parasite Trypanosoma cruzi (Tulahuen LacZ, Clone C4), in vitro.; format: functional, organism-based
[10] = DNDI: Cytotoxicity against L929 mouse fibroblasts, CYTO-SP, 24 hour; format: toxicity, cell-based; details: mouse, L929 mouse fibroblasts
[11] = DNDI: Cytotoxicity against L-6 rat myoblasts from skeletal muscle cells; format: toxicity, cell-based, L6; details: L-6 rat skeletal muscle myoblasts
[12] = tested on: Trypanosoma brucei rhodesiense; experiment: DNDI: Inhibition of Human African Trypanosomiasis (HAT), STIB 900, in vitro; format: functional, organism-based
Trypanosoma brucei [13] = experiment: DNDI: Mean survival time in days (MSD) of mice after intraperitoneal injection of Human African Trypanosomiasis (HAT), EATRO 110, at 0.5 mg/kg/day for 4 days.; format: functional, Mus musculus
Trypanosoma brucei [14] = experiment: DNDI: Mean survival time in days (MSD) of mice after intraperitoneal injection of Human African Trypanosomiasis (HAT), EATRO 110, in vivo at 20 mg/kg/day for 4 days.; format: functional, Mus musculus
Trypanosoma brucei [15] = experiment: DNDI: Mean survival time in days (MSD) of mice after intraperitoneal injection of Human African Trypanosomiasis (HAT), EATRO 110, in vivo at 1.25 mg/kg/day for 4 days.; format: functional, Mus musculus
Trypanosoma brucei [16] = experiment: DNDI: Mean survival time in days (MSD) of mice after intraperitoneal injection of Human African Trypanosomiasis (HAT), EATRO 110, in vivo at 2.5 mg/kg/day for 4 days.; format: functional, Mus musculus
Trypanosoma brucei [17] = experiment: DNDI: Mean survival time in days (MSD) of mice after intraperitoneal injection of Human African Trypanosomiasis (HAT), EATRO 110, in vivo at 12.5 mg/kg/day for 4 days.; format: functional, Mus musculus
Trypanosoma brucei [18] = experiment: DNDI: Mean survival time in days (MSD) of mice after intraperitoneal injection of Human African Trypanosomiasis (HAT), EATRO 110, in vivo at 5 mg/kg/day for 4 days.; format: functional, Mus musculus
Leishmania donovani = experiment: DNDI: Inhibition of formation of Leishmania donovani (strain MHOM/ET/67/L82) axenic amastigotes, in vitro.; format: functional, organism-based
Plasmodium falciparum = experiment: DNDI: Inhibition of the malaria parasite Plasmodium falciparum, in vitro; format: functional, organism-based; details: K1
[19] = DNDI: half life in human liver microsomes at a concentration of 10uM; format: ADME, Microsome
[20] = DNDI: in vitro intrinsic clearance in human liver microsomes at a concentration of 10uM; format: ADME, Microsome
[21] = DNDI: in vitro intrinsic clearance in mouse liver microsomes at a concentration of 10uM; format: ADME, Microsome; details: read-out: CLint in vitro
[22] = DNDI: half life in mouse liver microsomes at a concentration of 10uM; format: ADME, Microsome
[23] = DNDI: Solubility in phosphate buffered saline at pH7.4 measured by optical density (turbidimetry) at room temperature (OD-RT); format: physicochemical; details: pH 7.4
[24] = mouse, microsomes, 1 µM
Description: DNDI: in vitro intrinsic clearance in mouse liver microsomes at a concentration of 1uM

in vitro = details: mouse, liver microsomes, t (1 / 2)
Description: DNDI: half life in mouse liver microsomes at a concentration of 1uM

Trypanosoma brucei [25] = experiment: DNDI: Inhibition of Human African Trypanosomiasis, EATRO 110, in vitro; format: functional, organism-based
MDR1 (ABCB1) [26] = biological target: T1, MDR1 (ABCB1); experiment: DNDI: % of compound recovered from apical to basolateral permeability assay in MDCK cells transfected with human MDR1; format: ADME, cell-based, Canis lupus familiaris; details: dog
MDR1 (ABCB1) [27] = biological target: T1, MDR1 (ABCB1); experiment: DNDI: Apparent permeability from apical to basolateral side of the MDCK cell transfected with human MDR1; format: ADME, cell-based, Canis lupus familiaris; details: dog
MDR1 (ABCB1) [28] = biological target: T1, MDR1 (ABCB1); experiment: DNDI: Apparent permeability from basolateral to apical side of the MDCK cell transfected with human MDR1 after 60 mins at a concentration of 3uM; format: ADME, cell-based, Canis lupus familiaris; details: dog
MDR1 (ABCB1) [29] = biological target: T1, MDR1 (ABCB1); experiment: DNDI: % of compound recovered from basolateral to apical permeability assay in MDCK cells transfected with human MDR1; format: ADME, cell-based, Canis lupus familiaris; details: dog
MDR1 (ABCB1) [30] = biological target: T1, MDR1 (ABCB1); experiment: as §2; format: ADME, cell-based, Canis lupus familiaris; details: dog, read-out: B-A/A-B
Trypanosoma brucei [31] = experiment: DNDI: Mean survival time in days (MSD) of mice after intraperitoneal injection of Human African Trypanosomiasis (HAT), STIB 795, in vivo at 50 mg/kg/day for 4 days.; format: functional, Mus musculus
Trypanosoma brucei [32] = experiment: DNDI: Mean survival time in days (MSD) of mice after p.o. administration of Human African Trypanosomiasis (HAT), STIB 795, in vivo at 100 mg/kg/day for 4 days.; format: functional, Mus musculus; details: route oral
L929 = experiment: as §1; format: toxicity, cell-based; details: l929
Trypanosoma brucei [33] = experiment: DNDI: Mean survival time in days (MSD) of mice after intraperitoneal injection of Human African Trypanosomiasis (HAT), EATRO 110, in vivo at 50 mg/kg/day for 4 days.; format: functional, Mus musculus

| Structure (SMILES) | IC50 at 72 h [1] | IC50 (Trypanosoma brucei [2]) | chromatographic logD [3] | solubility kinetic [9] | IC50 at 24 h [10] | MSD (Trypanosoma brucei [13]) | MSD (Trypanosoma brucei [14]) | MSD (Trypanosoma brucei [15]) | MSD (Trypanosoma brucei [16]) | MSD (Trypanosoma brucei [17]) | MSD (Trypanosoma brucei [18]) | microsomal CLint at 10 µM [21] | half-life at 10 µM [22] | solubility kinetic [23] | CLint in vitro [24] | half-life at 1 µM (in vitro) | also measured |
| --- | --- | --- | --- | --- | --- | --- | --- | --- | --- | --- | --- | --- | --- | --- | --- | --- | --- |
| CN(C)CCNc1nc(Oc2cccc3ccccc23)c2sccc2n1 | 3.48 µg/mL (≈ 9.55 µM) | 1.28 µg/mL (≈ 3.51 µM) | 4.85 | 100 µM (≈ 36.4 µg/mL) |  |  |  |  |  |  |  |  |  |  |  |  | recovery at 1 h, 3 µM (MDR1 (ABCB1) [4]): 77.5%; Papp [5]: 11.62 ×10⁻⁶ cm/s; Papp [6]: 21.11 ×10⁻⁶ cm/s; recovery at 1 h, 3 µM (MDR1 (ABCB1) [7]): 110%; Calculated Ratio [8]: 0.45 |
| COc1ccc(/C(=N/O)NC2CCCCC2)cc1 | > 10 µg/mL | 0.61 µg/mL (≈ 2.46 µM) | 3.82 |  | > 50 µg/mL | 4 days | 4.6 days | 4 days | 4 days | 4 days | 4.3 days | 544 µL/min/mg | 5 min | 50 µM (≈ 12.4 µg/mL) | 329 µL/min/mg | 3 min | IC50 (Trypanosoma cruzi): > 30 µg/mL; IC50 [11]: 58.3 µg/mL (≈ 235 µM); IC50 [12]: 18.3 µg/mL (≈ 73.7 µM); IC50 (Leishmania donovani): 11.9 µg/mL (≈ 48 µM); IC50 (Plasmodium falciparum): 4.7 µg/mL (≈ 18.9 µM); half-life at 10 µM [19]: 76 min; CLint in vitro [20]: 38 µL/min/mg |
| O/N=C(/NC1CCCCC1)c1cccnc1Oc1ccccc1Cl |  | 0.95 µg/mL (≈ 2.75 µM) | 4.52 |  | > 50 µg/mL | 4 days | 4 days | 4 days | 4 days | 4 days | 4 days | 211 µL/min/mg | 14 min | 4 µM (≈ 1.38 µg/mL) |  |  | IC50 (Trypanosoma brucei [25]): 1.41 µg/mL (≈ 4.08 µM); recovery (MDR1 (ABCB1) [26]): 58%; Papp A→B (MDR1 (ABCB1) [27]): 30.2 ×10⁻⁶ cm/s; Papp B→A at 1 h, 3 µM (MDR1 (ABCB1) [28]): 34.8 ×10⁻⁶ cm/s; recovery (MDR1 (ABCB1) [29]): 67%; efflux ratio (MDR1 (ABCB1) [30]): 1.2 |
| CCCCc1ccc(-c2nc(CNCCCN(C)C)co2)cc1 | 1.4 µg/mL (≈ 4.44 µM) | 0.07 µg/mL (≈ 0.222 µM) | 5.07 | < 1 µM |  |  |  |  |  |  |  |  |  |  | 9 µL/min/mg | 96 min | MSD (Trypanosoma brucei [31]): 7 days; MSD (Trypanosoma brucei [32]): 7 days |
| CN1CCCC1CCNCc1coc(-c2ccc(OC3CCCC3)cc2)n1 (stereo unspecified) | 1.33 µg/mL (≈ 3.6 µM) | 0.22 µg/mL (≈ 0.595 µM) |  |  |  |  |  |  |  |  |  |  |  |  |  |  | IC50 (L929): 1.42 µg/mL (≈ 3.84 µM); MSD (Trypanosoma brucei [33]): <1 days |
